The record followed here is patent publication US12435092B2, “Substituted imidazo[1,2-A]quinazolines as inhibitors of PARG” (858 Therapeutics, Inc., priority 2022, dated 2025).

Where only a bound is given, the exact number is not on record here.

In the assay the target is T1, cellular PARG (Homo sapiens, UniProt Q86W56).
T1 construct: endogenous in cells; host or cells: HeLa
T1 sequence (Q86W56 whole entry): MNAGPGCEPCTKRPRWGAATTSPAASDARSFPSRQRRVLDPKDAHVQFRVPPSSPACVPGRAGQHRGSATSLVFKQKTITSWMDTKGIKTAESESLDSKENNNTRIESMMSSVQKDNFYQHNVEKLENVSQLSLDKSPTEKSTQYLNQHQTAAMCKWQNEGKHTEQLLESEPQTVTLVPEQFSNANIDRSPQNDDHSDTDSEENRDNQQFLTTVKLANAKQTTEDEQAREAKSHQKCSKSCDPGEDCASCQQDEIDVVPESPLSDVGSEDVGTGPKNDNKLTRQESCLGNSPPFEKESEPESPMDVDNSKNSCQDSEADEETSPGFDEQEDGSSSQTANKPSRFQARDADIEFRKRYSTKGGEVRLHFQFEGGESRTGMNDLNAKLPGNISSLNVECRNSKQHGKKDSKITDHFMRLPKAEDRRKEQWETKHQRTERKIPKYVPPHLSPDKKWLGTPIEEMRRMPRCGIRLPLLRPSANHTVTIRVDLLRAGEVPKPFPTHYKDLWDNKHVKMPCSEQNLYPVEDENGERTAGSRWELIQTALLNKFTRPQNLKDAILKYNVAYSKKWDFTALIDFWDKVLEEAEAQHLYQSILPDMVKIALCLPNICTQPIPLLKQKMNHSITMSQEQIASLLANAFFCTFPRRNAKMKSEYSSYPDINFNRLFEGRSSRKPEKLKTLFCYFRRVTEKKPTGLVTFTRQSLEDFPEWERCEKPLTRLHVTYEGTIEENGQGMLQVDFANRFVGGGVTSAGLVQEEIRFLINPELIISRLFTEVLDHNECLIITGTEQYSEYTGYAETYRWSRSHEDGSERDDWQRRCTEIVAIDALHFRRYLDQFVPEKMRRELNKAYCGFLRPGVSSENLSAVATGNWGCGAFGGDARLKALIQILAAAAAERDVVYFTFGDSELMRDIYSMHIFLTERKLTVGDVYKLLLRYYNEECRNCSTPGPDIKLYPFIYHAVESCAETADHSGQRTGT
The assay can be described thus: Nuclear PAR accumulation assay (immunofluorescence high-content imaging). Format: cell-based. As to conditions: HeLa cells, 1 hour compound treatment then MMS 50 μg/mL for an additional hour. The gist of the method: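 HeLa cells pretreated 1 h at 37 °C with compound, then 1 h with 50 μg/mL MMS (final), methanol-fixed and immunostained for PAR with DAPI nuclear counterstain. Nuclear PAR intensity and percent PAR-positive cells quantified by high-content imaging (≥1,000 cells/well). IC50 by four-parameter logistic fit, normalized to 0.1% DMSO and reference-compound controls.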
Usually IC50 stands for the midpoint of a concentration-inhibition curve. `CN(C)C[C@H]1CN=C2N(Cc3cnn(C)c3)C(=O)c3cc(S(=O)(=O)NC4(C)CC4)ccc3N21` [Example 96, (S)-1-((dimethylamino)methyl)-4-((1-methyl-1H-pyrazol-4-yl)methyl)-N-(1-methylcyclopropyl)-5-oxo-1,2,4,5-tetrahydroimidazo[1,2-a]quinazoline-7-sulfonamide] registered an IC50 of 1000 to 10000 nM.

`Cn1cc(CN2C(=O)c3cc(S(=O)(=O)NC4(C)CC4)ccc3N3C2=NC[C@H]3CN)cn1` [Example 97, (R)-1-(aminomethyl)-4-((1-methyl-1H-pyrazol-4-yl)methyl)-N-(1-methylcyclopropyl)-5-oxo-1,2,4,5-tetrahydroimidazo[1,2-a]quinazoline-7-sulfonamide] displayed an IC50 of 100 to 1000 nM.

For `[2H]C([2H])(c1sc(C)nc1C)N1C(=O)c2cc(S(=O)(=O)NC3(C)CC3)ccc2N2C1=N[C@H]1COC[C@H]12` [Example 98, (7aR,10aS)-6-(dideutero(2,4-dimethylthiazol-5-yl)methyl)-N-(1-methylcyclopropyl)-5-oxo-5,6,7a,8,10,10a-hexahydrofuro[3′,4′:4,5]imidazo[1,2-a]quinazoline-3-sulfonamide], the IC50 is no more than 100 nM. `CNC[C@@H]1CN=C2N(Cc3cnn(C)c3)C(=O)c3cc(S(=O)(=O)NC4(C)CC4)ccc3N21` [Example 99, (R)-4-((1-methyl-1H-pyrazol-4-yl)methyl)-1-((methylamino)methyl)-N-(1-methylcyclopropyl)-5-oxo-1,2,4,5-tetrahydroimidazo[1,2-a]quinazoline-7-sulfonamide] yielded a concentration for half-maximal inhibition (IC50) of 100 to 1000 nM. Compound `Cn1cc(CN2C(=O)c3cc(S(=O)(=O)NC4(C)CC4)ccc3N3CC4(CC4)N=C23)cn1` [Example 100, 4′-((1-methyl-1H-pyrazol-4-yl)methyl)-N-(1-methylcyclopropyl)-5′-oxo-4′,5′-dihydro-1′H-spiro[cyclopropane-1,2′-imidazo[1,2-a]quinazoline]-7′-sulfonamide] gave a half-inhibitory concentration (IC50) of no more than 100 nM. As to `Cn1cc(CN2C(=O)c3cc(S(=O)(=O)NC4(C)CC4)ccc3N3CC4(CCC4)N=C23)cn1` [Example 101, 4′-((1-methyl-1H-pyrazol-4-yl)methyl)-N-(1-methylcyclopropyl)-5′-oxo-4′,5′-dihydro-1′H-spiro[cyclobutane-1,2′-imidazo[1,2-a]quinazoline]-7′-sulfonamide], the IC50 is no more than 100 nM. `Cn1cc(CN2C(=O)c3cc(S(=O)(=O)NC4(C)CC4)ccc3N3CC4(CC(F)(F)C4)N=C23)cn1` [Example 102, 3,3-difluoro-4′-((1-methyl-1H-pyrazol-4-yl)methyl)-N-(1-methylcyclopropyl)-5′-oxo-4′,5′-dihydro-1′H-spiro[cyclobutane-1,2′-imidazo[1,2-a]quinazoline]-7′-sulfonamide] displayed an IC50 of no more than 100 nM. For `Cn1cc(CN2C(=O)c3cc(S(=O)(=O)NC4(C)CC4)ccc3N3CC4(CCOC4)N=C23)cn1` (centres unmarked) [Example 103, 4′-((1-methyl-1H-pyrazol-4-yl)methyl)-N-(1-methylcyclopropyl)-5′-oxo-4,4′,5,5′-tetrahydro-1′H,2H-spiro[furan-3,2′-imidazo[1,2-a]quinazoline]-7′-sulfonamide] the value was no more than 100 nM; for `Cn1cc(CN2C(=O)c3cc(S(=O)(=O)NC4(C)CC4)ccc3N3C2=NCC32CCC2)cn1` [Example 104, 4′-((1-methyl-1H-pyrazol-4-yl)methyl)-N-(1-methylcyclopropyl)-5′-oxo-4′,5′-dihydro-2′H-spiro[cyclobutane-1,1′-imidazo[1,2-a]quinazoline]-7′-sulfonamide], no more than 100 nM; for `Cn1cc(CN2C(=O)c3cc(S(=O)(=O)NC4(C)CC4)ccc3N3C2=NCC32COC2)cn1` [Example 105, 4-((1-methyl-1H-pyrazol-4-yl)methyl)-N-(1-methylcyclopropyl)-5-oxo-4,5-dihydro-2H-spiro[imidazo[1,2-a]quinazoline-1,3′-oxetane]-7-sulfonamide], 100 to 1000 nM. As to `C[C@H]1CN2C(=N1)N(Cc1cnn(C)c1)C(=O)c1cc(S(=O)(=O)NC3(C)CC3)ccc12` [Example 106, (S)-2-methyl-4-((1-methyl-1H-pyrazol-4-yl)methyl)-N-(1-methylcyclopropyl)-5-oxo-1,2,4,5-tetrahydroimidazo[1,2-a]quinazoline-7-sulfonamide], the IC50 is no more than 100 nM. The value for `C[C@@H]1CN2C(=N1)N(Cc1cnn(C)c1)C(=O)c1cc(S(=O)(=O)NC3(C)CC3)ccc12` [Example 107, (R)-2-methyl-4-((1-methyl-1H-pyrazol-4-yl)methyl)-N-(1-methylcyclopropyl)-5-oxo-1,2,4,5-tetrahydroimidazo[1,2-a]quinazoline-7-sulfonamide] was 100 to 1000 nM; that for `C[C@@H]1N=C2N(Cc3cnn(C)c3)C(=O)c3cc(S(=O)(=O)NC4(C)CC4)ccc3N2[C@@H]1C` [Example 108, (1R,2S)-1,2-dimethyl-4-((1-methyl-1H-pyrazol-4-yl)methyl)-N-(1-methylcyclopropyl)-5-oxo-1,2,4,5-tetrahydroimidazo[1,2-a]quinazoline-7-sulfonamide] was no more than 100 nM; that for `C[C@@H]1[C@@H](C)N=C2N(Cc3cnn(C)c3)C(=O)c3cc(S(=O)(=O)NC4(C)CC4)ccc3N21` [Example 109, (1R,2R)-1,2-dimethyl-4-((1-methyl-1H-pyrazol-4-yl)methyl)-N-(1-methylcyclopropyl)-5-oxo-1,2,4,5-tetrahydroimidazo[1,2-a]quinazoline-7-sulfonamide] was no more than 100 nM. Compound `C[C@@H]1N2C(=NC1(C)C)N(Cc1cnn(C)c1)C(=O)c1cc(S(=O)(=O)NC3(C)CC3)ccc12` [Example 110, (S)-1,2,2-trimethyl-4-((1-methyl-1H-pyrazol-4-yl)methyl)-N-(1-methylcyclopropyl)-5-oxo-1,2,4,5-tetrahydroimidazo[1,2-a]quinazoline-7-sulfonamide] had an IC50 of 100 to 1000 nM. `C[C@H]1N2C(=NC1(C)C)N(Cc1cnn(C)c1)C(=O)c1cc(S(=O)(=O)NC3(C)CC3)ccc12` [Example 111, (R)-1,2,2-trimethyl-4-((1-methyl-1H-pyrazol-4-yl)methyl)-N-(1-methylcyclopropyl)-5-oxo-1,2,4,5-tetrahydroimidazo[1,2-a]quinazoline-7-sulfonamide] displayed an IC50 of no more than 100 nM. For `Cc1ncc(CN2C(=O)c3cc(S(=O)(=O)NC4(C)CC4)ccc3N3C2=NC[C@H]3C)[nH]1` [Example 112, (R)-1-methyl-4-((2-methyl-1H-imidazol-5-yl)methyl)-N-(1-methylcyclopropyl)-5-oxo-1,2,4,5-tetrahydroimidazo[1,2-a]quinazoline-7-sulfonamide], the 50% inhibitory concentration (IC50) is 1000 to 10000 nM.

The compound `[2H]C([2H])(c1sc(C)nc1C)N1C(=O)c2cc(S(=O)(=O)NC3(C)CC3)c(F)cc2N2C1=NC[C@H]2C` [Example 113, (R)-4-(dideutero(2,4-dimethylthiazol-5-yl)methyl)-8-fluoro-1-methyl-N-(1-methylcyclopropyl)-5-oxo-1,2,4,5-tetrahydroimidazo[1,2-a]quinazoline-7-sulfonamide] displayed an IC50 of no more than 100 nM. For `C[C@@H]1CN=C2N1c1ccc(S(=O)(=O)NC3(C)CC3)cc1C(=O)N2C1(c2cnn(C)c2)CC1` [Example 114, (R)-1-methyl-4-(1-(1-methyl-1H-pyrazol-4-yl)cydopropyl)-N-(1-methylcyclopropyl)-5-oxo-1,2,4,5-tetrahydroimidazo[1,2-a]quinazoline-7-sulfonamide] the value was 1000 to 10000 nM; for `Cc1ncn(C)c1CN1C(=O)c2cc(S(=O)(=O)NC3(C)CC3)ccc2N2C1=NC[C@H]2C` [Example 115, (R)-4-((1,4-dimethyl-1H-imidazol-5-yl)methyl)-1-methyl-N-(1-methylcyclopropyl)-5-oxo-1,2,4,5-tetrahydroimidazo[1,2-a]quinazoline-7-sulfonamide], 100 to 1000 nM; for `Cn1cc(CN2C(=O)c3cc(S(=O)(=O)NC4(C)CC4)ccc3N3CC4(COC4)N=C23)cn1` [Example 116, 4-((1-methyl-1H-pyrazol-4-yl)methyl)-N-(1-methylcyclopropyl)-5-oxo-4,5-dihydro-1H-spiro[imidazo[1,2-a]quinazoline-2,3′-oxetane]-7-sulfonamide], 100 to 1000 nM.

In turn, `CCC1(C)CN2C(=N1)N(Cc1cnn(C)c1)C(=O)c1cc(S(=O)(=O)NC3(C)CC3)ccc12` (centres unmarked) [Example 117, 2-ethyl-2-methyl-4-((1-methyl-1H-pyrazol-4-yl)methyl)-N-(1-methylcyclopropyl)-5-oxo-1,2,4,5-tetrahydroimidazo[1,2-a]quinazoline-7-sulfonamide] displayed an IC50 of no more than 100 nM.

Compound `C[C@@H]1CN=C2N(Cc3cnn4c3CCC4)C(=O)c3cc(S(=O)(=O)NC4(C)CC4)ccc3N21` [Example 118, (R)-4-((5,6-dihydro-4H-pyrrolo[1,2-b]pyrazol-3-yl)methyl)-1-methyl-N-(1-methylcyclopropyl)-5-oxo-1,2,4,5-tetrahydroimidazo[1,2-a]quinazoline-7-sulfonamide] came in with a half-maximal inhibitory concentration (IC50) of no more than 100 nM. Compound `C[C@@H]1CN=C2N(Cc3cnn4c3OCCC4)C(=O)c3cc(S(=O)(=O)NC4(C)CC4)ccc3N21` [Example 119, (R)-4-((6,7-dihydro-5H-pyrazolo[5,1-b][1,3]oxazin-3-yl)methyl)-1-methyl-N-(1-methylcyclopropyl)-5-oxo-1,2,4,5-tetrahydroimidazo[1,2-a]quinazoline-7-sulfonamide] gave an IC50 of no more than 100 nM.

For the compound `Cc1nc(C)c(CN2C(=O)c3cc(S(=O)(=O)NC4(C)CC4)ccc3N3C2=NC[C@H]3C)[nH]1` [Example 120, (R)-4-((2,4-dimethyl-1H-imidazol-5-yl)methyl)-1-methyl-N-(1-methylcyclopropyl)-5-oxo-1,2,4,5-tetrahydroimidazo[1,2-a]quinazoline-7-sulfonamide], the IC50 fell in the range of 1000 to 10000 nM. `Cc1nnsc1CN1C(=O)c2cc(S(=O)(=O)NC3(C)CC3)ccc2N2C1=NC[C@H]2C` [Example 121, (R)-1-methyl-4-((4-methyl-1,2,3-thiadiazol-5-yl)methyl)-N-(1-methylcyclopropyl)-5-oxo-1,2,4,5-tetrahydroimidazo[1,2-a]quinazoline-7-sulfonamide] displayed an IC50 of no more than 100 nM.
